One block for each molecule: values may come before it.
Experiment: ^13C breath test, intravenous administration (femoral vein), diabetic vs normal rats
Assay type: in vivo, rat
Settings: for slope from 10 to 14 min after the administration / Δ^13C value (‰) at 20 min after the administration: 5 mg/kg from the femoral vein, Example 28
Source text: As test animals, male Sprague-Dawley strain (SD) neonatal rats were purchased from Nippon Charles River K. K. together with their lactating rats. […] Insulin secretion-deficient type diabetes was generated by administering streptozotocin (STZ) to neonatal rats (“Saibokogaku (Cell Engineering)”, Extra Issue, medical Experiment Manual Series, Strategy for Study of Diabetes, edited by Susumu Seino and Yoshikazu Oka, published by Shujunsha Co., Japan). STZ was subcutaneously administered to 2-day-old rats at a dose of 90 mg/kg. […] Two days after the administration, blood was collected by cardiac puncture, and the casual blood sugar level of each rat was measured with Terumo […] (blood sugar measurement set). […] Breath tests were carried out according to the method as described in (2)-1 or (2)-2 below on diabetic rats prepared in (1) above (8-10-week-old) and normal rats (8-10-week-old). […] A blood sample was collected from the tail vein, and its sugar level was determined using Terumo […] (blood sugar measurement set). […] Fine Science Tools Inc.).

[1] = diabetic rats, 10 mg/kg from the femoral vein, Example 34
[2] = normal rats, 10 mg/kg from the femoral vein, Example 34
[3] = diabetic rats, 20 mg/kg from the femoral vein, Example 12
[4] = normal rats, 20 mg/kg from the femoral vein, Example 12
[5] = diabetic rats, 10 mg/kg from the femoral vein, Example 9
[6] = normal rats, 10 mg/kg from the femoral vein, Example 9
[7] = diabetic rats, 50 mg/kg from the femoral vein, Example 14
[8] = normal rats, 50 mg/kg from the femoral vein, Example 14
[9] = diabetic rats, 10 mg/kg from the femoral vein, Example 25
[10] = normal rats, 10 mg/kg from the femoral vein, Example 25
[11] = diabetic rats, 20 mg/kg from the femoral vein, Example 23
[12] = normal rats, 20 mg/kg from the femoral vein, Example 23
[13] = diabetic rats (n=2), 20 mg/kg from the femoral vein, Example 18
[14] = normal rats, 20 mg/kg from the femoral vein, Example 18
[15] = diabetic rats, 20 mg/kg from the femoral vein, Example 22
[16] = normal rats, 20 mg/kg from the femoral vein, Example 22
[17] = diabetic rats, 20 mg/kg from the femoral vein, Example 8
[18] = normal rats, 20 mg/kg from the femoral vein, Example 8
[19] = diabetic rats, 50 mg/kg, printed as administered orally from the femoral vein, Example 19
[20] = normal rats, 50 mg/kg, printed as administered orally from the femoral vein, Example 19
[21] = diabetic rats, 30 mg/kg from the femoral vein, Example 32
[22] = normal rats, 30 mg/kg from the femoral vein, Example 32
[23] = diabetic rats, 70 mg/kg from the femoral vein, Example 30
[24] = normal rats, 70 mg/kg from the femoral vein, Example 30
[25] = diabetic rats, 50 mg/kg from the femoral vein, Example 31
[26] = normal rats, 50 mg/kg from the femoral vein, Example 31

SMILES: C[13C](=O)OCC(CO[13C](C)=O)O[13C](C)=O [1,1,1-^13C-triacetin]
slope from 6 to 10 min after the administration [1]: −6.26±1.50 ‰/4 min
time course of Δ^13C values (‰) [1]: increased sharply up to about 8 min after the administration, but thereafter decreased gradually up to 20 min
Δ^13C value (‰) at 4 min after the administration [1]: 41.97±2.79 ‰
slope from 6 to 10 min after the administration [2]: −0.83±0.90 ‰/4 min
time course of Δ^13C values (‰) [2]: continued increasing up to 20 min
Δ^13C value (‰) at 4 min after the administration [2]: 27.29±2.31 ‰

SMILES: O=C(O)CC(O)(C[13C](=O)O)[13C](=O)O (stereo not shown) [1,6-^13C-citric acid]
slope from 10 to 14 min after the administration (diabetic rats): −10.45±1.30 ‰/4 min
Δ^13C value (‰) at 20 min after the administration (diabetic rats): 54.38±3.34 ‰
slope from 10 to 14 min after the administration (normal rats): −5.81±0.92 ‰/4 min
Δ^13C value (‰) at 20 min after the administration (normal rats): 67.49±1.82 ‰

SMILES: N=C(N)NCCC[C@H](N)[13C](=O)O [1-^13C-arginine]
slope from 2 to 7 min after the administration [7]: 146.90±18.97 ‰/5 min
time course of Δ^13C values (‰) [7]: increased up to about 12 min after the administration, but thereafter decreased gradually up to 20 min
Δ^13C value (‰) at 10 min after the administration [7]: 192.40±30.23 ‰
slope from 2 to 7 min after the administration [8]: 75.02±10.01 ‰/5 min
time course of Δ^13C values (‰) [8]: continued increasing up to 20 min
Δ^13C value (‰) at 10 min after the administration [8]: 111.68±14.15 ‰

SMILES: O=C([13CH2]O)[C@@H](O)[C@H](O)[C@H](O)CO [1-^13C-fructose]
time course of Δ^13C values (‰) (rat, in vivo, 100 mg/kg): continued increasing up to 20 min

SMILES: O=[13CH][C@H](O)[C@@H](O)[C@@H](O)[C@H](O)CO [1-^13C-galactose]
time course of Δ^13C values (‰) (rat, in vivo, 100 mg/kg): continued increasing up to 30 min

SMILES: N[C@@H](CCC(=O)O)[13C](=O)O [1-^13C-glutamic acid]
time course of Δ^13C values (‰) (rat, in vivo, 10 mg/kg): increased sharply up to about 4 min after the administration of 1-^13C-glutamic acid, but thereafter decreased gradually up to 20 min

SMILES: NC[13C](=O)O [1-^13C-glycine]
time course of Δ^13C values (‰) [15]: increased sharply up to about 5 min after the administration, but thereafter decreased gradually up to 20 min
Δ^13C value (‰) at 7 min after the administration [15]: 156.62±10.83 ‰
time course of Δ^13C values (‰) [16]: increased sharply up to about 5 min after the administration of 1-^13C-glycine, remained at an almost constant level up to about 12 min, but thereafter decreased gradually up to 20 min
Δ^13C value (‰) at 7 min after the administration [16]: 119.06±12.19 ‰

SMILES: CC[C@H](C)[C@H](N)[13C](=O)O [1-^13C-isoleucine]
slope from 2 to 5 min after the administration [17]: 56.21±2.09 ‰/3 min
time course of Δ^13C values (‰) [17]: increased sharply up to about 9 min after the administration, but thereafter remained at an almost constant level up to 20 min
Δ^13C value (‰) at 5 min after the administration [17]: 83.92±5.53 ‰
slope from 2 to 5 min after the administration [18]: 33.21±2.44 ‰/3 min
time course of Δ^13C values (‰) [18]: continued increasing up to 20 min
Δ^13C value (‰) at 5 min after the administration [18]: 46.98±3.24 ‰

SMILES: Cl.NCCCC[C@H](N)[13C](=O)O [1-^13C-lysine hydrochloride]
slope from 15 to 20 min after the administration [19]: −26.64±5.36 ‰/5 min
time course of Δ^13C values (‰) [19]: increased up to about 10 min after the administration, but thereafter decreased gradually up to 20 min
Δ^13C value (‰) at 8 min after the administration [19]: 181.53±23.82 ‰
slope from 15 to 20 min after the administration [20]: −4.58±6.91 ‰/5 min
time course of Δ^13C values (‰) [20]: increased up to about 11 min after the administration of 1-^13C-lysine hydrochloride, and thereafter remained at an almost constant level up to 20 min
Δ^13C value (‰) at 8 min after the administration [20]: 96.95±27.48 ‰

SMILES: CCCCCCC[13C](=O)O [1-^13C-octanoic acid]
slope from 10 to 20 min after the administration [21]: −20.55±7.75 ‰/10 min
time course of Δ^13C values (‰) [21]: increased sharply up to about 5 min after the administration, but thereafter decreased gradually up to 20 min
slope from 10 to 20 min after the administration [22]: −4.76±4.41 ‰/10 min
time course of Δ^13C values (‰) [22]: increased sharply up to about 5 min after the administration of 1-^13C-octanoic acid, and thereafter remained at an almost constant level up to 20 min

SMILES: CCCCCCCC/C=C\CCCCCCC[13C](=O)O [1-^13C-oleic acid]
slope from 10 to 20 min after the administration [23]: −12.79±3.72 ‰/10 min
time course of Δ^13C values (‰) [23]: increased sharply up to about 8 min after the administration, but thereafter decreased gradually up to 20 min
Δ^13C value (‰) at 8 min after the administration [23]: 132.93±7.09 ‰
slope from 10 to 20 min after the administration [24]: 13.61±4.58 ‰/10 min
time course of Δ^13C values (‰) [24]: continued increasing up to 20 min
Δ^13C value (‰) at 8 min after the administration [24]: 86.51±14.72 ‰

SMILES: CCCCCCCCCCCCCCC[13C](=O)O [1-^13C-palmitic acid]
slope from 10 to 20 min after the administration [25]: −4.40±2.21 ‰/10 min
time course of Δ^13C values (‰) [25]: increased sharply up to about 5 min after the administration, but thereafter decreased gradually up to 20 min
slope from 10 to 20 min after the administration [26]: 1.43±1.33 ‰/10 min
time course of Δ^13C values (‰) [26]: continued increasing up to 20 min

More lines, main results first:

slope from 2 to 7 min after the administration [3]: 87.79±12.93 ‰/5 min
Δ^13C value (‰) at 10 min after the administration [3]: 155.70±17.99 ‰
slope from 2 to 7 min after the administration [4]: 53.56±4.72 ‰/5 min
time course of Δ^13C values (‰) [4]: continued increasing up to 20 min
Δ^13C value (‰) at 10 min after the administration [4]: 100.71±5.97 ‰
SMILES: Cl.NCCC[13C@H](N)[13C](=O)O [1,2-^13C-ornithine hydrochloride]
time course of Δ^13C values (‰) [3]: increased up to about 14 min after the administration, and thereafter remained at an almost constant level up to 20 min

slope from 5 to 15 min after the administration [5]: −52.09±19.38 ‰/10 min
Δ^13C value (‰) at 10 min after the administration [5]: 161.35±6.670 ‰
slope from 5 to 15 min after the administration [6]: −18.12±7.28 ‰/10 min
Δ^13C value (‰) at 10 min after the administration [6]: 132.16±3.53 ‰
SMILES: C[C@H](N)[13C](=O)O [1-^13C-alanine]
time course of Δ^13C values (‰) [5]: sharply increased up to 4 min after the administration of 1-^13C-alanine, but thereafter decreased gradually up to 20 min
time course of Δ^13C values (‰) [6]: sharply increased up to 4 min after the administration of 1-^13C-alanine, but thereafter decreased gradually up to 20 min

slope from 3 to 8 min after the administration [9]: −53.79±11.42 ‰/5 min
Δ^13C value (‰) at 3 min after the administration [9]: 172.66±8.65 ‰
slope from 3 to 8 min after the administration [10]: −8.13±10.84 ‰/5 min
Δ^13C value (‰) at 3 min after the administration [10]: 126.56±13.45 ‰
SMILES: N[C@@H](CC(=O)O)[13C](=O)O [1-^13C-aspartic acid]
time course of Δ^13C values (‰) [9]: increased sharply up to about 2 min after the administration of 1-^13C-aspartic acid, but thereafter decreased gradually up to 20 min
time course of Δ^13C values (‰) [10]: increased sharply up to about 2 min after the administration of 1-^13C-aspartic acid, but thereafter decreased gradually up to 20 min

slope from 1 to 2 min after the administration [11]: 38.50±2.33 ‰/min
Δ^13C value (‰) at 2 min after the administration [11]: 42.87±2.09 ‰
slope from 1 to 2 min after the administration [12]: 65.72±10.66 ‰/min
Δ^13C value (‰) at 2 min after the administration [12]: 78.97±13.98 ‰
SMILES: N[C@@H](CS)[13C](=O)O [1-^13C-cysteine]

slope from 1 to 2 min after the administration [13]: 105.59 ‰/min
Δ^13C value (‰) at 5 min after the administration [13]: 168.18 ‰
slope from 1 to 2 min after the administration [14]: 69.88±11.51 ‰/min
Δ^13C value (‰) at 5 min after the administration [14]: 107.17±15.42 ‰
SMILES: NC(=O)CC[C@H](N)[13C](=O)O [1-^13C-glutamine]
time course of Δ^13C values (‰) (diabetic rats, 20 mg/kg from the femoral vein, Example 18): increased sharply up to about 3 min after the administration, but thereafter decreased gradually up to 20 min
time course of Δ^13C values (‰) [14]: increased sharply up to about 3 min after the administration of 1-^13C-glutamine, and thereafter increased gradually up to 20 min

Δ^13C value (‰) at 5 min after the administration (diabetic rats (n=2), 10 mg/kg from the femoral vein, Example 24): 52.89±10.83 ‰
Δ^13C value (‰) at 5 min after the administration (normal rats, 10 mg/kg from the femoral vein, Example 24): 42.56±2.43 ‰
SMILES: CC(C)C[C@H](N)[13C](=O)O [1-^13C-leucine]
